The values below are quoted from earlier work in paper PMC4506092, “Utilizing Chemical Genomics to Identify Cytochrome b as a Novel Drug Target for Chagas Disease” (PLoS Pathogens, 2015).

This data set deals with T. cruzi infection. The following applies: cited from earlier work; for Parasitological cure rates: Chagas disease patients, clinical testing.

Consider `CC[C@@H]([C@H](C)O)n1ncn(-c2ccc(N3CCN(c4ccc(OC[C@@H]5CO[C@@](Cn6cncn6)(c6ccc(F)cc6F)C5)cc4)CC3)cc2)c1=O` [posaconazole], for which the Parasitological cure rates is 20–30%. Also, the “Patients with recrudescence of infection” value (Chagas patients, 60-day treatment, determined by PCR) is listed as 81%.
As for `C[C@@H](c1nc(-c2ccc(C#N)cc2)cs1)[C@@](Cn1cncn1)(OCOP(=O)(O)O)c1ccc(F)cc1F` [Compound E1224], the Parasitological cure rates is 20–30%. For the same compound, the “Patients with failure to cure infection” value (treated Chagas patients) is ~ 70%.
